Experimental findings from patent publication US20230219951A1, “PYRIDINE-PYRIMIDINE DERIVATIVE, PREPARATION METHOD THEREFOR AND PHARMACEUTICAL USE THEREOF” (Jiangsu Hengrui Pharmaceuticals Co., Ltd., priority 2020, published 2023) are described below.

One series concerns H358 cells. The experiment in a line: Inhibition of proliferation of H358 cells (CellTiter-Glo 3D). Type of series: cell-based. The settings on record: Homo sapiens, NCI-H358, low adsorption plate, 120 h. Put shortly: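 H358 cells at 1500/well in low-adsorption plates (RPMI, 10% FBS), centrifuged and grown overnight, then exposed 120 h at 37 °C to 9 concentrations, 5-fold dilutions from 10 μM; 0.1% DMSO blank. Luminescence read with CellTiter-Glo 3D; IC50 calculated from the curves.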
For orientation: ATP-based viability assays read luminescence as a measure of living cells.

Another series concerns the target T1, CYP3A4M (Homo sapiens, UniProt P08684).
T1 construct: tissue Corning Gentest 452161; host or cells: human liver microsomes
The experiment in a line: Human liver microsome CYP450 inhibition, CYP3A4M midazolam 1-hydroxylation. The format is in vitro ADME. The settings on record: human liver microsomes, midazolam probe substrate. The procedure:
The inhibition effect of the compounds of the present disclosure on the human liver microsome CYP450 enzyme was determined by the following method:
An appropriate amount of human liver microsome stock solution (20 mg/mL) was diluted to obtain a 0.25 mg/mL microsome solution with 7.5 mM MgC12 solution for later use (prepared right before use).
b. An appropriate amount of the stock solution was precisely pipetted, and diluted into series solution I at the concentrations of 10 mM, 3 mM, 1 mM, 0.3 mM, 0.03 mM and 0.003 mM with an appropriate amount of DMSO solution. An appropriate amount of the above series solution I was precisely pipetted, and diluted to obtain series solution II at the concentrations of 3 mM, 1 mM, 0.3 mM, 0.1 mM, 0.03 mM, 0.003 mM and 0.0003 mM with an appropriate amount of acetonitrile. An appropriate amount of the above series solution II was precisely pipetted, and diluted with PBS to obtain a working solution at the concentrations of 150 μM, 50 μM, 15 μM, 5μM, 1.5 μM, 0.15 μM and 0.015 μM for later use.
a. […]
The values were calculated by Graphpad Prism to obtain the IC50 values for the inhibition of drugs on CYP2C19 (S)-mephenytoin 4′-hydroxylation and CYP3A4M midazolam 1-hydroxylation metabolism in human liver microsomes, as shown in Table 6.
In general terms: Liver microsomes are a subcellular fraction often used to study metabolism.

Series [1] in a line: Pharmacokinetic evaluation in nude mice. Type of series: in vivo. The settings on record: female, mouse, plasma, po, BALB/C nude mice, intragastric administration, 50 mg/kg. The procedure:
The drug concentration in the plasma of the test animals (nude mice) at different time points after intragastric administration (i.g.) of compound 18-p1 was determined by using an LC/MS/MS method. The pharmacokinetic behavior of the compound of the present disclosure in nude mice was studied and its pharmacokinetic profile was evaluated.
Nine BALB/C nude mice, female, intragastric administration, purchased from Beijing Vital River Laboratory Animal Technology Co., Ltd., with animal production license number of SCXK (Shanghai) 2017-0005.
An amount of compound 18-p1 was weighed, dissolved in 0.5% by volume of CMCNa, and then prepared into a 2.5 mg/mL clear solution with 99.5% normal saline.
The nude mice were intragastrically administered at a dose of 50.0 mg/kg and a volume of 20.0 mL/kg.
The compound 18-p1 was administered intragastrically to nude mice, and 0.1 mL of blood was collected from the orbit before administration and 0.25 h, 0.5 h, 1.0 h, 2.0 h, 4.0 h, 6.0 h, 8.0 h, 11.0 h and 24.0 h after administration. The blood was placed in an EDTA-K2 anticoagulation tube and centrifuged at 10,000 rpm for 1 min (4° C.), and plasma was separated out within 1 h and then stored at −20° C. for testing. The process from blood sampling to centrifugation was performed under an ice bath.
The content of the test compounds at different concentrations in plasma of nude mice after administration was determined: 25 μL of plasma of nude mice at each time point after administration was taken, and 200 μL of acetonitrile (containing 50 μL of internal standard solution camptothecin, 100 ng/mL) was added; the mixture was vortexed for 5 min, and centrifuged for 10 min (4000 r/min). 0.5 μL of supernatant was taken from the plasma sample for LC/MS/MS analysis.

A value given as a limit tells only on which side of the number the result lay.

T1 sequence (P08684 whole entry): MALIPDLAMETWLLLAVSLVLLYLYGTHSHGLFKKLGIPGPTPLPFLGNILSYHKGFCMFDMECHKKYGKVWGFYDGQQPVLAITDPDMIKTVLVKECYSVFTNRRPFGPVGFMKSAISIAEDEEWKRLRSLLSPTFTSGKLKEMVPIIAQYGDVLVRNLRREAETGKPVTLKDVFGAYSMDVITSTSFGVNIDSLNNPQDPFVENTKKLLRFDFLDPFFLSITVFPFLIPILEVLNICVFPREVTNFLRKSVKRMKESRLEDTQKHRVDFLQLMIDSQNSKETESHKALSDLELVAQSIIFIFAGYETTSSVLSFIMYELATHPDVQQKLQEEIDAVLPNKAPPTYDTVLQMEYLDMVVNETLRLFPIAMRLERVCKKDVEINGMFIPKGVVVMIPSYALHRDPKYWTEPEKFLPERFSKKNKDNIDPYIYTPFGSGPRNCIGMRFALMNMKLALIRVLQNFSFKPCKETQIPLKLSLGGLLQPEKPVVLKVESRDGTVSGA

As usually defined, the IC50 is the concentration at which inhibition is half-maximal. A higher IC50 goes with lower potency. Usually half-life stands for the time needed for the level to fall by half in the phase considered. As for `Cc1nc(N[C@H](C)c2cccc(C(F)F)c2F)c2cc([C@]3(O)CC[C@@H](O)CC3)c(=O)[nH]c2n1` [Example 18-p1, 4-(((R)-1-(3-(difluoromethyl)-2-fluorophenyl)ethyl)amino)-6-((1s,4S)-1,4-dihydroxycyclohexyl)-2-methylpyrido[2,3-d]pyrimidin-7(8H)-one], the results for the IC50 in the series with H358 cells and on CYP3A4M were 72 nM and > 30 µM, respectively. Besides, the Vd/F in series [1] (read-out: Apparent distribution volume Vz/F) was determined as 16.6 L/kg. Besides, the AUC(0-t) in series [1] (read-out: Area under curve AUC0-t) was 5150 ng·h/mL. Also, the CL/F in series [1] (read-out: Clearance CLz/F) stood at 160 mL/min/kg. In addition, the half-life in series [1] (read-out: Half-life T½ (converted)) was 1.2 h. The Cmax in series [1] (read-out: Plasma concentration Cmax) stood at 1560 ng/mL.
